From patent US20240317865A1, “ANTIBODIES AGAINST INTEGRIN ALPHA 11 BETA 1” (MOMENTA PHARMACEUTICALS, INC., priority 2020, published 2024)

Tested on: A549 cell xenografts
Experiment: Tumor xenograft model
Assay type: in vivo, C.B-17 SCID mice
Conditions: docetaxel 10 mg/kg every 4 days, 6 doses
Description: Fifty-six female C.B-17 SCID mice were inoculated with A549 cells (5×10^6 cells/mouse) subcutaneously in the flank. Once tumor volume reached ˜100 mm^3, animals were randomized amongst 7 groups of 8 mice each. Mice were then treated intraperitonealy every 3 days for a total of 7 doses with isotype controls or novel mAbs 79E3E3, 16E10 and 9G04 (2 and 20 mg/kg) or with docetaxel at 10 mg/kg every 4 days for a total of 6 doses. Tumor volumes and body weights were recorded twice a week with a gap of 2-3 days in between two measurements until any of the following conditions defined were observed: loss of 20% or more body weight; tumors that inhibit normal physiological function such as eating, drinking, and mobility; ulcerated tumors; tumor size greater than 2000 mm^3 and clinical observations of prostration, paralysis, seizures and hemorrhages.
In this example, studies were performed to determine if inhibition of α11β1 function with mAb results in xenograft growth inhibition. As shown in FIG. 16 and Table 4, blocking α11β1 on mouse CAFs impeded xenograft growth in SCID mice.

**Q.** For `CC(=O)O[C@@]12CO[C@@H]1C[C@H](O)[C@@]1(C)C(=O)[C@H](O)C3=C(C)[C@@H](OC(=O)[C@H](O)[C@@H](NC(=O)OC(C)(C)C)c4ccccc4)C[C@@](O)([C@@H](OC(=O)c4ccccc4)[C@H]21)C3(C)C` [Docetaxel, docetaxel, reference compound], which “Days to Volume Doubling (ave, 95% CI)” value is on record?
**A.** 11.0 (10.0, 12.0) Days
